Results as given in patent US9550803B2, “Method to improve antiviral activity of nucleotide analogue drugs” (priority 2011, dated 2017).
Where two headings read alike, the source gives them in different places.

Columns and labels:
[1] = tested on: human cytomegalovirus (HCMV); assay: microbe, parasite or virus in culture; assay type: cell-based; conditions: read-out: Antiviral activity, IC50 HCMV
vaccinia virus = assay: microbe, parasite or virus in culture; assay type: cell-based; conditions: read-out: Antiviral activity, IC50 Vaccinia
cowpox virus = assay: microbe, parasite or virus in culture; assay type: cell-based; conditions: read-out: Antiviral activity, IC50 Cowpox
in vitro = conditions: human
[2] = Human betaherpesvirus 5, HFF, 240 h
[3] = Orthopoxvirus vaccinia, HFF, 72 h

SMILES | IC50 [1] | IC50 (vaccinia virus) | IC50 (cowpox virus) | CC50 (KB cells) | IC50 [1, 2] | IC50 (vaccinia virus; [3]) | IC50 (cowpox virus; Cowpox virus, HFF, 72 h) | CC50 (in vitro)
C[C@H](Cn1cnc2c(N)nc(N)nc21)OCP(=O)(O)O [(R)-PMPDAP, reference compound] | > 100000 nM | > 100 µM | > 100 µM | > 100 µM | – | – | – | –
Nc1ncnc2c1ncn2C[C@@H](CO)OCP(=O)(O)O [(S)-HPMPA, (S)-9-(3hydroxy-2-phosphonyl-methoxypropyl)adenine, reference compound] | 6000 nM | 2.5 µM | 20 µM | > 100 µM | – | – | – | –
Nc1ccn(C[C@@H](CO)OCP(=O)(O)O)c(=O)n1 [(S)-HPMPC, cidofovir, reference compound] | – | – | – | – | 300 nM | 10 µM | 25 µM | > 100 µM
Nc1ncnc2c1ncn2C[C@H]1COP(=O)(O)CO1 [(S)-cHPMPA, reference compound] | 1500 nM | 1 µM | 2.5 µM | > 100 µM | – | – | – | –
CC(=NNC(N)=S)c1ccccn1 [Compound 3L, 2-Acetylpyridine thiosemicarbazone, reference compound] | – | – | – | – | – | – | – | 2 µM
CCCCCCCCNC(=O)[C@@H](N)Cc1ccc(OP2(=O)CO[C@@H](Cn3cnc4c(N)ncnc43)CO2)cc1 (stereo partly drawn) [Compound 8a, O-[(5S)-5-[(6-Amino-9H-purin-9-yl)methyl]-2-oxido-1,4,2-dioxaphosphinan-2-yl]-N-octyl-(L)-tyrosinamide] | – | – | – | – | 300 nM | 1.5 µM | 3 µM | 100 µM
CCCCCCCCCCCCNC(=O)[C@@H](N)Cc1ccc(OP2(=O)CO[C@@H](Cn3cnc4c(N)ncnc43)CO2)cc1 (stereo partly drawn) [Compound 8b, O-[(5S)-5-[(6-Amino-9H-purin-9-yl)methyl]-2-oxido-1,4,2-dioxaphosphinan-2-yl]-N-dodecyl-(L)-tyrosinamide] | – | – | – | – | < 0.001 nM | – | – | 15 µM
CCCCCCCCCCCCCCNC(=O)[C@@H](N)Cc1ccc(OP2(=O)CO[C@@H](Cn3cnc4c(N)ncnc43)CO2)cc1 (stereo partly drawn) [Compound 8c, O-[(5S)-5-[(6-Amino-9H-purin-9-yl)methyl]-2-oxido-1,4,2-dioxaphosphinan-2-yl]-N-tetradecyl-(L)-tyrosinamide] | – | – | – | – | < 0.001 nM | – | – | 15 µM
CCCCCCCCCCCCCCCCNC(=O)[C@@H](N)Cc1ccc(OP2(=O)CO[C@@H](Cn3cnc4c(N)ncnc43)CO2)cc1 (stereo partly drawn) [Compound 8d, O-[(5S)-5-[(6-Amino-9H-purin-9-yl)methyl]-2-oxido-1,4,2-dioxaphosphinan-2-yl]-N-hexadecyl-(L)-tyrosinamide] | – | – | – | – | < 0.001 nM | 0.006 µM | < 0.1 µM | 11 µM
CCCCCCCCCCCCCCCCCCNC(=O)[C@@H](N)Cc1ccc(OP2(=O)CO[C@@H](Cn3cnc4c(N)ncnc43)CO2)cc1 (stereo partly drawn) [Compound 8e, O-[(5S)-5-[(6-Amino-9H-purin-9-yl)methyl]-2-oxido-1,4,2-dioxaphosphinan-2-yl]-N-octadecyl-(L)-tyrosinamide] | – | – | – | – | < 0.001 nM | – | – | 10 µM
CCCCCCCCCCCCCCCCNC(=O)[C@@H](N)Cc1ccc(OP2(=O)CO[C@@H](Cn3ccc(N)nc3=O)CO2)cc1 (stereo partly drawn) [Compound 8f, O-[(5S)-5-[(4-amino-2-oxopyrimidin-1(2H)-yl)methyl]-2-oxido-1,4,2-dioxaphosphinan-2-yl]-N-hexadecyl-(L)-tyrosinamide] | – | – | – | – | < 0.001 nM | – | – | 15 µM
CCCCCCCCNC(=O)[C@@H](N)Cc1ccc(OP(=O)(O)CO[C@H](CO)Cn2cnc3c(N)ncnc32)cc1 [Compound 9a, O-[([[(2S)-1-(6-Amino-9H-purin-9-yl)-3-hydroxypropan-2-yl]oxy]methyl)(hydroxy)-phosphoryl]-N-octyl-(L)-tyrosinamide] | – | – | – | – | < 100 nM | – | – | –
CCCCCCCCCCCCNC(=O)[C@@H](N)Cc1ccc(OP(=O)(O)CO[C@H](CO)Cn2cnc3c(N)ncnc32)cc1 [Compound 9b, O-[([[(2S)-1-(6-Amino-9H-purin-9-yl)-3-hydroxypropan-2-yl]oxy]methyl)(hydroxy)-phosphoryl]-N-dodecyl-(L)-tyrosinamide] | – | – | – | – | < 0.001 nM | – | – | 15 µM
CCCCCCCCCCCCCCNC(=O)[C@@H](N)Cc1ccc(OP(=O)(O)CO[C@H](CO)Cn2cnc3c(N)ncnc32)cc1 [Compound 9c, O-[([[(2S)-1-(6-Amino-9H-purin-9-yl)-3-hydroxypropan-2-yl]oxy]methyl)(hydroxy)-phosphoryl]-N-tetradecyl-(L)-tyrosinamide] | – | – | – | – | < 0.001 nM | – | – | 20 µM
CCCCCCCCCCCCCCCCNC(=O)[C@@H](N)Cc1ccc(OP(=O)(O)CO[C@H](CO)Cn2cnc3c(N)ncnc32)cc1 [Compound 9d, O-[([[(2S)-1-(6-Amino-9H-purin-9-yl)-3-hydroxypropan-2-yl]oxy]methyl)(hydroxy)-phosphoryl]-N-hexadecyl-(L)-tyrosinamide] | – | – | – | – | < 0.001 nM | 0.003 µM | < 0.1 µM | 15 µM
CCCCCCCCCCCCCCCCCCNC(=O)[C@@H](N)Cc1ccc(OP(=O)(O)CO[C@H](CO)Cn2cnc3c(N)ncnc32)cc1 [Compound 9e, O-[([[(2S)-1-(6-Amino-9H-purin-9-yl)-3-hydroxypropan-2-yl]oxy]methyl)-(hydroxy)-phosphoryl]-N-octadecyl-(L)-tyrosinamide] | – | – | – | – | < 0.001 nM | – | – | 10 µM
CCCCCCCCCCCCCCCCNC(=O)[C@@H](N)Cc1ccc(OP(=O)(O)CO[C@H](CO)Cn2ccc(N)nc2=O)cc1 [Compound 9f, O-[([[(2S)-1-(4-amino-2-oxopyrimidin-(2H)-yl)-3-hydroxypropan-2-yl]oxy]methyl)-(hydroxy)phosphoryl]-N-hexadecyl-(L)-tyrosinamide] | < 0.001 nM | – | – | 90 µM | – | – | – | –
CCCCCCCCNC(=O)[C@@H](N)Cc1ccc(OP(=O)(O)COCCn2cnc3c(N)ncnc32)cc1 [Compound 14a, O-[{[2-(6-Amino-9H-purin-9-yl)ethoxy]methyl}(hydroxy)phosphoryl]-N-octyl-L-tyrosinamide] | – | – | – | – | 35000 nM | 50 µM | > 100 µM | 100 µM
CCCCCCCCCCCCCCCCNC(=O)[C@@H](N)Cc1ccc(OP(=O)(O)COCCn2cnc3c(N)ncnc32)cc1 [Compound 14b, O-[{[2-(6-Amino-9H-purin-9-yl)ethoxy]methyl}(hydroxy)phosphoryl]-N-hexadecyl-L-tyrosinamide] | – | – | – | – | 2500 nM | 4 µM | 20 µM | 15 µM
CCCCCCCCNC(=O)[C@@H](N)Cc1ccc(OP(=O)(O)CO[C@H](C)Cn2cnc3c(N)nc(N)nc32)cc1 [Compound 15a, O-[({[(2R)-1-(2,6-diamino-9H-purin-9-yl)propan-2-yl]oxy}methyl)(hydroxy)phosphoryl]-N-octyl-L-tyrosinamide] | – | – | – | – | > 100000 nM | > 100 µM | > 100 µM | > 100 µM
Nc1nc(O)c2ncn(COC(CO)CO)c2n1 [DHPG, Ganciclovir, reference compound] | – | – | – | – | 3000 nM | – | – | –
Nc1ncnc2c1ncn2CCOCP(=O)(O)O [PMEA, reference compound] | 25000 nM | > 100 µM | > 100 µM | > 100 µM | – | – | – | –
